Measurements taken from patent US20220169632A1, “METHODS AND MATERIALS FOR INCREASING OR MAINTAINING NICOTINAMIDE MONONUCLEOTIDE ADENYLYL TRANSFERASE-2 (NMNAT2) POLYPEPTIDE LEVELS” (University of Pittsburgh - Of the Commonwealth System of …, priority 2019, published 2022).

Test system: NMNAT2
Test: NMNAT2-Hibit nano-luciferase activity in stably transfected U87MG cells, various concentrations, 24 hours
Assay type: cell-based
Settings: U87MG cells stably transfected with NMNAT2-Hibit luc plasmid
Method: Selected compounds were tested in vitro. U87MG cells were stably transfected with NMNAT2-Hibit luc plasmid. Cells were treated with a test compound at various concentrations for 24 hours. Cells were then collected and assayed for nano-luciferase activity.

Structure (SMILES) | E: compound efficacy for NMNAT2 activation (concentration giving >25% increase in NMNAT2 luciferase activity)
Cc1ccccc1CNC(=O)C1CCc2c(c3ccccc3n2CC(=O)NCc2ccco2)C1 (centres unmarked) [BC20238] | ++ (“++” >25% increase in NMNAT2 luciferase activity at >1 μM ≤25 μM.)
O=C(NCc1ccco1)N1CCc2c(c3ccccc3n2Cc2ccncc2)C1 [BC20357] | ++ (“++” >25% increase in NMNAT2 luciferase activity at >1 μM ≤25 μM.)
COc1cccc(CNC(=O)c2ccc3c(c2)c(C)c(C)n3Cc2ccccc2F)c1 [BC20196] | + (“+” >25% increase in NMNAT2 luciferase activity at >25 μM.)
O=C(NCC1CCCO1)C1CCCc2c1c1ccccc1n2Cc1cccc(F)c1 (centres unmarked) [BC20370] | + (“+” >25% increase in NMNAT2 luciferase activity at >25 μM.)
O=C(NCc1cccnc1)C1CCc2c(c3ccccc3n2Cc2ccncc2)C1 (centres unmarked) [BC20317] | + (“+” >25% increase in NMNAT2 luciferase activity at >25 μM.)
Cc1ccc(CNC(=O)CCCc2cn(Cc3ccccc3F)c3ccccc23)o1 [BC20122] | ++ (“++” >25% increase in NMNAT2 luciferase activity at >1 μM ≤25 μM.)
Cc1cccc(NC(=O)C2CCc3c(c4ccccc4n3Cc3cccc(F)c3)C2)c1C (centres unmarked) [BC20229] | + (“+” >25% increase in NMNAT2 luciferase activity at >25 μM.)
Cc1c(C)n(Cc2cccc(F)c2)c2ccc(C(=O)NC(C)Cc3ccco3)cc12 (centres unmarked) [BC20118] | ++ (“++” >25% increase in NMNAT2 luciferase activity at >1 μM ≤25 μM.)
COCCN(CCNC(=O)[C@H]1C[C@@H]1c1cn(Cc2cc(C)ccc2C)c2ccccc12)Cc1ccco1 (racemic) [BC20365] | + (“+” >25% increase in NMNAT2 luciferase activity at >25 μM.)
Cc1ccc(Cn2cc([C@H]3C[C@@H]3C(=O)NCc3ccc(C)o3)c3ccccc32)cc1 (racemic) [BC20294] | + (“+” >25% increase in NMNAT2 luciferase activity at >25 μM.)
Cc1ccc(Cn2cc([C@H]3C[C@@H]3C(=O)NCCc3ccccc3)c3ccccc32)cc1 (racemic) [BC20300] | ++ (“++” >25% increase in NMNAT2 luciferase activity at >1 μM ≤25 μM.)
COc1cccc(CNC(=O)CCCc2cn(Cc3cccc(C)c3)c3ccccc23)c1 [BC20169] | ++ (“++” >25% increase in NMNAT2 luciferase activity at >1 μM ≤25 μM.)
O=C(NCCc1ccccc1)C1CCc2c(c3ccccc3n2Cc2ccncc2)C1 (centres unmarked) [BC20284] | + (“+” >25% increase in NMNAT2 luciferase activity at >25 μM.)
Cc1cccc(NC(=O)c2ccc3c(c2)c(C)c(C)n3Cc2cccc(F)c2)c1C [BC20249] | +++ (“+++” >25% increase in NMNAT2 luciferase activity at ≤1 μM.)
CCCCN(CC)Cc1ccc(CNC(=O)C2CCCc3c2c2ccccc2n3Cc2cccc(F)c2)o1 (centres unmarked) [BC20381] | ++ (“++” >25% increase in NMNAT2 luciferase activity at >1 μM ≤25 μM.)
Cc1cccc(CNC(=O)C2CCc3c(c4ccccc4n3Cc3ccncc3)C2)c1 (centres unmarked) [BC20281] | + (“+” >25% increase in NMNAT2 luciferase activity at >25 μM.)
O=C1c2cccc3c2c(cn3Cc2cccc(F)c2)CCN1CCOc1ccc(F)cc1 [BC20342] | + (“+” >25% increase in NMNAT2 luciferase activity at >25 μM.)
O=C(CCCc1cn(Cc2ccccc2F)c2ccccc12)NCc1cccc(F)c1 [BC20124] | ++ (“++” >25% increase in NMNAT2 luciferase activity at >1 μM ≤25 μM.)
O=C(NCc1cccc(F)c1)N1CCc2c(c3ccccc3n2Cc2ccncc2)C1 [BC20334] | + (“+” >25% increase in NMNAT2 luciferase activity at >25 μM.)
Cc1cccc(CNC(=O)C2CCc3c(c4ccccc4n3Cc3cc(C)ccc3C)C2)c1 (centres unmarked) [BC20186] | + (“+” >25% increase in NMNAT2 luciferase activity at >25 μM.)
O=C(NCc1cccc(F)c1)C1CCCc2c1c1ccccc1n2Cc1cccc(F)c1 (centres unmarked) [BC20371] | ++ (“++” >25% increase in NMNAT2 luciferase activity at >1 μM ≤25 μM.)
CC(Cc1ccco1)NC(=O)CCCc1cn(Cc2cccc(F)c2)c2ccccc12 (centres unmarked) [BC20145] | ++ (“++” >25% increase in NMNAT2 luciferase activity at >1 μM ≤25 μM.)

Structure (SMILES) | E: compound efficacy for NMNAT2 activation (concentration giving >25% increase in NMNAT2 luciferase activity)
Cc1ccc(C)c(Cn2c(C(F)F)c(CCC(=O)NCc3ccc(C)o3)c3ccccc32)c1 [BC20367] | ++ (“++” >25% increase in NMNAT2 luciferase activity at >1 μM ≤25 μM.)
Cc1ccccc1Cn1cc(CCCC(=O)NCc2ccncc2)c2ccccc21 [BC20160] | ++ (“++” >25% increase in NMNAT2 luciferase activity at >1 μM ≤25 μM.)
Cc1cccc(CNC(=O)CCCc2cn(Cc3cccc(F)c3)c3ccccc23)c1 [BC20141] | + (“+” >25% increase in NMNAT2 luciferase activity at >25 μM.)
Cc1cccc(Cn2cc(CCCC(=O)NCc3ccc(C)o3)c3ccccc32)c1 [BC20164] | +++ (“+++” >25% increase in NMNAT2 luciferase activity at ≤1 μM.)
Cc1ccc(C)c(Cn2c(C(F)F)c(C3CC(=O)Nc4cccc(C)c43)c3ccccc32)c1 (centres unmarked) [BC20405] | ++ (“++” >25% increase in NMNAT2 luciferase activity at >1 μM ≤25 μM.)
Cc1ccccc1Cn1c(C)c(C)c2cc(C(=O)NCc3cccc(F)c3)ccc21 [BC20202] | ++ (“++” >25% increase in NMNAT2 luciferase activity at >1 μM ≤25 μM.)
Cc1ccccc1Cn1c(C)c(C)c2cc(C(=O)NCc3cccnc3)ccc21 [BC20208] | ++ (“++” >25% increase in NMNAT2 luciferase activity at >1 μM ≤25 μM.)
CCCCN(CC)Cc1ccc(CNC(=O)[C@H]2C[C@@H]2c2cn(Cc3cc(C)ccc3C)c3ccccc23)o1 (racemic) [BC20353] | ++ (“++” >25% increase in NMNAT2 luciferase activity at >1 μM ≤25 μM.)
COc1ccccc1CNC(=O)[C@H]1C[C@@H]1c1cn(Cc2ccc(C)cc2)c2ccccc12 (racemic) [BC20298] | + (“+” >25% increase in NMNAT2 luciferase activity at >25 μM.)
COc1ccc(CCN2CCc3cn(Cc4cc(C)ccc4C)c4cccc(c34)C2=O)cc1 [BC20272] | + (“+” >25% increase in NMNAT2 luciferase activity at >25 μM.)
Cc1ccccc1Cn1c(C)c(C)c2cc(C(=O)N3CCN(C(=O)c4ccco4)CC3)ccc21 [BC20206] | + (“+” >25% increase in NMNAT2 luciferase activity at >25 μM.)
O=C(NCc1ccncc1)C1CCCc2c1c1ccccc1n2Cc1cccc(F)c1 (centres unmarked) [BC20380] | + (“+” >25% increase in NMNAT2 luciferase activity at >25 μM.)
Cc1c(C)n(Cc2ccccc2F)c2ccc(C(=O)NCc3ccncc3)cc12 [BC20197] | ++ (“++” >25% increase in NMNAT2 luciferase activity at >1 μM ≤25 μM.)
Cc1cccc(CNC(=O)[C@H]2C[C@@H]2c2cn(Cc3cc(C)ccc3C)c3ccccc23)c1 (racemic) [BC20348] | + (“+” >25% increase in NMNAT2 luciferase activity at >25 μM.)
O=C(Nc1cc(F)ccc1F)N1CCc2c(c3ccccc3n2Cc2cccc(F)c2)C1 [BC20361] | ++ (“++” >25% increase in NMNAT2 luciferase activity at >1 μM ≤25 μM.)
CCCCN(CC)Cc1ccc(CNC(=O)c2ccc3c(c2)c(C)c(C)n3Cc2ccccc2F)o1 [BC20198] | +++ (“+++” >25% increase in NMNAT2 luciferase activity at ≤1 μM.)
Cc1c(C)n(Cc2ccccc2)c2ccc(C(=O)N3CCc4occc4C3)cc12 [BC20307] | + (“+” >25% increase in NMNAT2 luciferase activity at >25 μM.)
Cc1ccc(C)c(Cn2cc([C@H]3C[C@@H]3C(=O)NCc3ccccc3C)c3ccccc32)c1 (racemic) [BC20347] | ++ (“++” >25% increase in NMNAT2 luciferase activity at >1 μM ≤25 μM.)
Cc1ccc(CNC(=O)Cn2c3c(c4ccccc42)CC(C(=O)NCc2ccco2)CC3)o1 (centres unmarked) [BC20285] | ++ (“++” >25% increase in NMNAT2 luciferase activity at >1 μM ≤25 μM.)
COc1ccccc1CNC(=O)Cn1c2c(c3ccccc31)CC(C(=O)NCc1ccco1)CC2 (centres unmarked) [BC20289] | + (“+” >25% increase in NMNAT2 luciferase activity at >25 μM.)
COc1ccccc1CNC(=O)CCCc1cn(Cc2ccccc2F)c2ccccc12 [BC20127] | ++ (“++” >25% increase in NMNAT2 luciferase activity at >1 μM ≤25 μM.)
CCCCN(CC)Cc1ccc(CNC(=O)C2CCCc3c2c2ccccc2n3Cc2ccc(C)cc2)o1 (centres unmarked) [BC20391] | ++ (“++” >25% increase in NMNAT2 luciferase activity at >1 μM ≤25 μM.)
